Source: ChEMBL document CHEMBL3228028, “Enzyme affinity of the 5,6-dihydro derivatives of the substrate and product of thymidylate synthetase catalysis” (J Med Chem, 1979)
pKi: −log10 of the molar value.

Columns and labels:
Thymidylate synthase [1] = biological target: T1, Thymidylate synthase (Lactobacillus casei, UniProt P00469); experiment: Competitive inhibition of Lactobacillus casei thymidylate synthetase using 2'-deoxy[5-3H]uridine-5'-phosphate as substrate assessed as release of water after 15 mins by double reciprocal plot analysis; design: species or system Lacticaseibacillus casei
T1 sequence (P00469 whole entry): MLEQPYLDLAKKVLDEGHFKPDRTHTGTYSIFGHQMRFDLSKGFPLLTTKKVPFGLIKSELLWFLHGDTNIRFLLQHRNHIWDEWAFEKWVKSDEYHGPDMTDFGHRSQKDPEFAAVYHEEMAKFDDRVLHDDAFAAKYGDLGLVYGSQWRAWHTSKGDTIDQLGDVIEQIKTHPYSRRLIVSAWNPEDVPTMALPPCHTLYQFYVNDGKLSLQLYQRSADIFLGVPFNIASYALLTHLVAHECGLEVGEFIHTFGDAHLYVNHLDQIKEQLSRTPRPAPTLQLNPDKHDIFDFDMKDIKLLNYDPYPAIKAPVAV

Thymidylate synthase [2] = biological target: T1, Thymidylate synthase; experiment: Competitive inhibition of Lactobacillus casei thymidylate synthetase using dTMP as substrate assessed as release of water after 15 mins by double reciprocal plot analysis; design: species or system Lacticaseibacillus casei

SMILES	pKi (Thymidylate synthase [1])	pKi (Thymidylate synthase [2])
CC1CN([C@H]2C[C@H](O)[C@@H](COP(=O)(O)O)O2)C(=O)NC1=O (stereo partly drawn)	3.82	
O=C1CCN([C@H]2C[C@H](O)[C@@H](COP(=O)(O)O)O2)C(=O)N1	4.00	5.55
